In PubChem BioAssay (NCI):
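Where inhibition never reached the appropriate level, the endpoint shown equals the highest concentration tested. Otherwise, values were interpolated linearly from a five-concentration, 48-hour dose response in 96-well plates. TGI: total growth inhibition.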

What was measured:
Assay in all cases: growth of human tumour cells (NCI), 48 h
MDA-MB-231 breast = tested on: MDA-MB-231 breast
HL-60(TB) leukemia = tested on: HL-60(TB) leukemia
HOP-62 NSCLC = tested on: HOP-62 NSCLC
OVCAR-3 ovarian = tested on: OVCAR-3 ovarian
SK-OV-3 ovarian = tested on: SK-OV-3 ovarian
A498 renal = tested on: A498 renal
HCC-2998 colon = tested on: HCC-2998 colon
NCI-H23 lung = tested on: NCI-H23 lung
OVCAR-4 ovarian = tested on: OVCAR-4 ovarian
RXF 393 renal = tested on: RXF 393 renal

SMILES	TGI (MDA-MB-231 breast)	TGI (HL-60(TB) leukemia)	TGI (HOP-62 NSCLC)	TGI (OVCAR-3 ovarian)	TGI (SK-OV-3 ovarian)	TGI (A498 renal)	TGI (HCC-2998 colon)	TGI (NCI-H23 lung)	TGI (OVCAR-4 ovarian)	TGI (RXF 393 renal)
CC(C)=CCC/C(C)=C/COc1c2ccoc2cc2oc(=O)ccc12	86.5 µM	50.5 µM	> 100 µM	57.6 µM	82.6 µM	68.2 µM	79.7 µM	> 100 µM	> 100 µM	
O=[N+]([O-])C(/C=N/Nc1ccccc1)/C=N/Nc1ccccc1		> 100 µM	> 100 µM	> 100 µM	> 100 µM	> 100 µM	> 100 µM	> 100 µM	> 100 µM	> 100 µM
CC1(C)CCC(C)(C)C1C(=O)NC(O)C(=O)O (stereo not given)	> 100 µM	> 100 µM	> 100 µM		> 100 µM	> 100 µM	> 100 µM			
CCCCCCCCCCCCCCCCOP(=O)(O)OCC(N)C(=O)O (stereo not given)	47.4 µM		45.9 µM	41.1 µM	63.8 µM	34.8 µM	> 100 µM	69.4 µM	35.6 µM	55 µM
O=C(/C=C/c1cccc(Oc2ccccc2)c1)NCc1ccc(C(=O)NCCc2ccccc2)cc1	> 100 µM		> 100 µM	> 100 µM	> 100 µM	> 100 µM	> 100 µM	> 100 µM	> 100 µM	61.1 µM
CCOC(=O)C(Cc1c[nH]c2cc([N+](=O)[O-])ccc12)NS(=O)(=O)c1ccc2ccccc2c1 (stereo not given)		48.5 µM	31.4 µM	31.5 µM	68.6 µM	80 µM	49.4 µM	48.4 µM	28 µM	37.8 µM
c1csc(-c2ccsc2-c2cccs2)c1		86.7 µM	> 100 µM	> 100 µM	> 100 µM	> 100 µM	> 100 µM	49.7 µM	> 100 µM	> 100 µM
OCCN(/N=C\c1ccc2ccccc2c1)C1=NCCN1	33.4 µM	43.6 µM	> 100 µM	> 100 µM	> 100 µM		32.6 µM	> 100 µM	> 100 µM	36.1 µM
Cc1oc2c(c1C)S(=O)(=O)C(C#N)=C(N(C)C)N2	> 100 µM		> 100 µM	> 100 µM	> 100 µM	> 100 µM	> 100 µM	> 100 µM	> 100 µM	
Cc1csc2c1-n1cccc1C2=O	> 100 µM		> 100 µM	> 100 µM	> 100 µM	> 100 µM	> 100 µM		> 100 µM	> 100 µM
Cn1ncc2c(Cl)ncnc21		> 100 µM	> 100 µM	> 100 µM	> 100 µM	> 100 µM	> 100 µM	> 100 µM	> 100 µM	> 100 µM
O=C(CSc1nc(-c2ccccc2)c(-c2ccccc2)[nH]1)N/N=C/c1ccc(O)cc1		62.3 µM	46.5 µM	48.4 µM	65.2 µM		61.1 µM	84.3 µM		61.4 µM
O=C(NC(=O)c1cc(-c2ccccc2)n[nH]1)c1ccccc1	> 100 µM		> 100 µM	> 100 µM	> 100 µM	> 100 µM	> 100 µM	> 100 µM	> 100 µM	> 100 µM
O=C(Nc1cccc([N+](=O)[O-])c1)c1n[nH]n(-c2cccc([N+](=O)[O-])c2)c1=O	> 100 µM	> 100 µM	> 100 µM		> 100 µM	> 100 µM		> 100 µM		> 100 µM
Cc1ccc(C2=C(C#N)C(N)OC3=C2COc2ccccc23)cc1 (stereo not given)	> 100 µM	> 100 µM	34.9 µM	41.9 µM	67.9 µM	50.2 µM	> 100 µM	> 100 µM	40.7 µM	
COc1cc2c(c(O)c1OC)CC1CCC(=O)N1C2c1cccc2ccccc12 (stereo not given)	33 µM	> 100 µM	41.8 µM	44.6 µM	> 100 µM	68.8 µM	33.3 µM	67.6 µM		
CC1CC/C(=C\c2ccc(F)cc2)C(=O)/C1=C/c1ccc(F)cc1 (stereo not given)	6.56 µM			28.1 µM	36.7 µM	25.3 µM		25.5 µM		9.98 µM
CC(O)(P(=O)(O)O)P(=O)(O)OCC(O)CN1CCOCC1 (stereo not given)	> 100 µM	> 100 µM	> 100 µM		> 100 µM	> 100 µM	> 100 µM	> 100 µM		> 100 µM
COc1ccc([C@@H]2CC(=O)N2)cc1		> 100 µM	> 100 µM		> 100 µM	> 100 µM		> 100 µM	> 100 µM	> 100 µM
O=C(/C=C(\S/C=C(/c1ccccc1)N1CCn2c(C(=O)c3ccccc3)c(C(=O)c3ccccc3)c(C(=O)c3ccccc3)c21)C(=O)c1ccccc1)c1ccccc1	> 10 µM	> 10 µM	> 10 µM	> 10 µM	> 10 µM		> 10 µM	> 10 µM	> 10 µM	
NNC(=S)NCCNC(=S)NN	> 100 µM	> 100 µM	> 100 µM	> 100 µM	> 100 µM		> 100 µM	> 100 µM	> 100 µM	
O=C(O)c1cnc(-n2[nH]c3c(c2=O)CCCC3)[nH]c1=O	> 100 µM	> 100 µM			> 100 µM	> 100 µM		> 100 µM	> 100 µM	
C=C1C(O)C[C@H](OC(C)=O)[C@]2(C)C1C(OC(C)=O)[C@]1(C(C)(C)O)CC(O)C(C)=C1[C@@H](OC(=O)c1ccccc1)C2OC(C)=O (stereo not given in full)	> 10 µM	> 10 µM		> 10 µM	> 10 µM	> 10 µM		> 10 µM	> 10 µM	> 10 µM
O=C(c1ccc(Cl)cc1)N(C(=S)N1CCN(c2ccccn2)CC1)C1CCCCC1		> 100 µM	> 100 µM	> 100 µM	> 100 µM			> 100 µM	> 100 µM	> 100 µM
C/C=C1\CN(C(=O)OC(C)(C)C)C1C(=O)OC(C)(C)C (stereo not given)		> 100 µM	> 100 µM	> 100 µM	> 100 µM	> 100 µM	> 100 µM	> 100 µM	> 100 µM	
